# Patent US20070128217A1 (priority 2003, published 2007)
# Legend:
# [1] = system: antibodies in sera from SARS patients (sera 1a, 1b, 2, 6, 37, 62, London, SARS-yellow, SARS-green); assay type: binding, human; set-up: Binding of serum 6 to linear peptides of protein X1 of SARS-CoV Urbani / Binding of serum 37 to linear peptides of protein X1 of SARS-CoV Urbani / Binding of serum 6 to looped/cyclic peptide (PEPSCAN-ELISA) / Binding of serum 37 to looped/cyclic peptide (PEPSCAN-ELISA) / Binding of serum 37 to looped/cyclic peptides of protein X1 of SARS-CoV Urbani / Binding of serum 6 to linear peptides of protein X2 / Binding of serum 37 to linear peptides of protein X2 / Binding of serum 37 to looped/cyclic peptides of protein X2 of SARS-CoV Urbani / Binding of serum 6 to linear peptides of protein M of SARS-CoV Urbani / Binding of serum 37 to linear peptides of protein M of SARS-CoV Urbani / Binding of serum 6 to looped/cyclic peptides of protein M of SARS-CoV Urbani / Binding of serum 37 to looped/cyclic peptides of protein M of SARS-CoV Urbani / Binding of serum 6 to linear peptides of protein X3 of SARS-CoV Urbani / Binding of serum 37 to linear peptides of protein X3 of SARS-CoV Urbani / Binding of serum 37 to looped/cyclic peptides of protein X3 of SARS-CoV Urbani / Binding of serum 6 to linear peptides of protein X4 of SARS-CoV Urbani / Binding of serum 37 to linear peptides of protein X4 of SARS-CoV Urbani / Binding of serum 37 to looped/cyclic peptides of protein X4 of SARS-CoV Urbani / Binding of serum 6 to linear peptides of protein X5 of SARS-CoV Urbani / Binding of serum 37 to linear peptides of protein X5 of SARS-CoV Urbani / Binding of serum 37 to looped/cyclic peptides of protein X5 of SARS-CoV Urbani / Binding of serum 6 to linear peptides of protein N of SARS-CoV Urbani / Binding of serum 37 to linear peptides of protein N of SARS-CoV Urbani / Binding of serum 6 to linear peptide (PEPSCAN-ELISA) / Binding of serum 1a to looped/cyclic peptides of protein N of SARS-CoV Urbani / Binding of serum 1b to looped/cyclic peptides of protein N of SARS-CoV Urbani / Binding of serum 2 to looped/cyclic peptides of protein N of SARS-CoV Urbani / Binding of serum 6 to looped/cyclic peptides of protein N of SARS-CoV Urbani / Binding of serum 37 to looped/cyclic peptides of protein N of SARS-CoV Urbani / Binding of serum 62 to looped/cyclic peptides of protein N of SARS-CoV Urbani / Binding of serum London to looped/cyclic peptides of protein N of SARS-CoV Urbani / Binding of serum SARS-green to looped/cyclic peptides of protein N of SARS-CoV Urbani: unit not given here
# [2] = system: control sera (pooled serum of ten healthy LUMC hospital workers; commercial negative donor pooled serum from the Dutch bloodbank); assay type: binding, human; set-up: Binding of Control serum LUMC to linear peptides / Binding of Control serum Blood-bank to linear peptides / Binding of Control serum LUMC to looped peptides / Binding of Control Serum Blood-Bank to Looped peptides / Binding of Control serum LUMC to linear peptides of the protein M of SARS-CoV Urbani / Binding of Control serum Blood-bank to linear peptides of the protein M of SARS-CoV Urbani / Binding of Control serum LUMC to looped peptides of the protein M of SARS-CoV Urbani / Binding of Control Serum Blood-Bank to Looped peptides of the protein M of SARS-CoV Urbani: unit not given here
# [3] = system: rabbit serum obtained by immunizing a rabbit with the SARS-CoV strain Frankfurt 1; assay type: binding; set-up: Binding of a rabbit serum to linear peptides / Binding of a rabbit serum to looped peptides / Rabbit serum linear peptides / Rabbit serum looped peptides / Binding of a rabbit serum to linear peptides of protein N of SARS-CoV Urbani (Rabbit serum linear peptides) / Binding of a rabbit serum to looped/cyclic peptides of protein N of SARS-CoV Urbani (Rabbit serum looped peptides): unit not given here
sequence,measurement,setting,value
FQFICNLLLLFVTIY,Binding of serum 1a to linear peptides of protein X1 of SARS-CoV Urbani,[1],0.6
same,Binding of serum 1a to looped/cyclic peptide (PEPSCAN-ELISA),[1],0.2
same,Binding of serum 1b to linear peptides of protein X1 of SARS-CoV Urbani,[1],0.5
same,Binding of serum 1b to looped/cyclic peptide (PEPSCAN-ELISA),[1],0.0
same,Binding of serum 2 to linear peptides of protein X1 of SARS-CoV Urbani,[1],0.5
same,Binding of serum 2 to looped/cyclic peptide (PEPSCAN-ELISA),[1],0.0
same,Binding of serum 6 to linear peptides of protein X1 of SARS-CoV Urbani,[1],0.3
same,Binding of serum 6 to looped/cyclic peptide (PEPSCAN-ELISA),[1],0.2
same,Binding of serum 37 to linear peptides of protein X1 of SARS-CoV Urbani,[1],0.5
same,Binding of serum 37 to looped/cyclic peptide (PEPSCAN-ELISA),[1],0.0
same,Binding of serum 62 to linear peptides of protein X1 of SARS-CoV Urbani,[1],0.5
same,Binding of serum 62 to looped/cyclic peptide (PEPSCAN-ELISA),[1],0.2
same,Binding of serum London to linear peptides of protein X1 of SARS-CoV Urbani,[1],0.2
same,Binding of serum London to looped/cyclic peptide (PEPSCAN-ELISA),[1],0.1
same,Binding of serum SARS-green to linear peptides of protein X1 of SARS-CoV Urbani,[1],0.1
same,Binding of serum SARS-green to looped/cyclic peptide (PEPSCAN-ELISA),[1],0.4
same,Binding of serum SARS-yellow to linear peptides of protein X1 of SARS-CoV Urbani,[1],0.5
same,Binding of serum SARS-yellow to looped/cyclic peptide (PEPSCAN-ELISA),[1],0.0
same,Binding of Control Serum Blood-Bank to Looped peptides,[2],0.4
same,Binding of Control serum Blood-bank to linear peptides,[2],0.5
same,Binding of Control serum LUMC to linear peptides,[2],0.5
same,Binding of Control serum LUMC to looped peptides,[2],0.3
same,Binding of a rabbit serum to linear peptides,[3],0.9
same,Binding of a rabbit serum to looped peptides,[3],0.0
FQVTIAEILIIIMRT,Binding of serum 1a to linear peptides of protein X3 of SARS-CoV Urbani,[1],0.7
same,Binding of serum 1a to looped/cyclic peptides of protein X3 of SARS-CoV Urbani,[1],0.5
same,Binding of serum 1b to linear peptides of protein X3 of SARS-CoV Urbani,[1],0.3
same,Binding of serum 1b to looped/cyclic peptides of protein X3 of SARS-CoV Urbani,[1],0.2
same,Binding of serum 2 to linear peptides of protein X3 of SARS-CoV Urbani,[1],0.6
same,Binding of serum 2 to looped/cyclic peptides of protein X3 of SARS-CoV Urbani,[1],0.5
same,Binding of serum 6 to linear peptides of protein X3 of SARS-CoV Urbani,[1],0.6
same,Binding of serum 6 to looped/cyclic peptides of protein X3 of SARS-CoV Urbani,[1],0.3
same,Binding of serum 37 to linear peptides of protein X3 of SARS-CoV Urbani,[1],0.3
same,Binding of serum 37 to looped/cyclic peptides of protein X3 of SARS-CoV Urbani,[1],0.6
same,Binding of serum 62 to linear peptides of protein X3 of SARS-CoV Urbani,[1],0.5
same,Binding of serum 62 to looped/cyclic peptides of protein X3 of SARS-CoV Urbani,[1],0.4
same,Binding of serum London to linear peptides of protein X3 of SARS-CoV Urbani,[1],0.7
same,Binding of serum London to looped/cyclic peptides of protein X3 of SARS-CoV Urbani,[1],0.2
same,Binding of serum SARS-green to linear peptides of protein X3 of SARS-CoV Urbani,[1],0.5
same,Binding of serum SARS-green to looped/cyclic peptides of protein X3 of SARS-CoV Urbani,[1],0.2
same,Binding of serum SARS-yellow to linear peptides of protein X3 of SARS-CoV Urbani,[1],1.1
same,Binding of serum SARS-yellow to looped/cyclic peptides of protein X3 of SARS-CoV Urbani,[1],0.6
same,Binding of Control Serum Blood-Bank to Looped peptides of the protein X3 of SARS-CoV Urbani,[2],0.7
same,Binding of Control serum Blood-bank to linear peptides of the protein X3 of SARS-CoV Urbani,[2],0.8
same,Binding of Control serum LUMC to linear peptides of the protein X3 of SARS-CoV Urbani,[2],0.4
same,Binding of Control serum LUMC to looped peptides of the protein X3 of SARS-CoV Urbani,[2],0.6
same,Rabbit serum linear peptides,[3],0.2
same,Rabbit serum looped peptides,[3],0.3
FVLAAVYRINWVTGG,Binding of serum 1a to linear peptides of protein M of SARS-CoV Urbani,[1],0.9
same,Binding of serum 1a to looped/cyclic peptides of protein M of SARS-CoV Urbani,[1],0.7
same,Binding of serum 1b to linear peptides of protein M of SARS-CoV Urbani,[1],0.7
same,Binding of serum 1b to looped/cyclic peptides of protein M of SARS-CoV Urbani,[1],0.6
same,Binding of serum 2 to linear peptides of protein M of SARS-CoV Urbani,[1],0.6
same,Binding of serum 2 to looped/cyclic peptides of protein M of SARS-CoV Urbani,[1],0.5
same,Binding of serum 6 to linear peptides of protein M of SARS-CoV Urbani,[1],0.3
same,Binding of serum 6 to looped/cyclic peptides of protein M of SARS-CoV Urbani,[1],0.8
same,Binding of serum 37 to linear peptides of protein M of SARS-CoV Urbani,[1],0.8
same,Binding of serum 37 to looped/cyclic peptides of protein M of SARS-CoV Urbani,[1],0.5
same,Binding of serum 62 to linear peptides of protein M of SARS-CoV Urbani,[1],0.8
same,Binding of serum 62 to looped/cyclic peptides of protein M of SARS-CoV Urbani,[1],0.6
same,Binding of serum London to linear peptides of protein M of SARS-CoV Urbani,[1],0.3
same,Binding of serum London to looped/cyclic peptides of protein M of SARS-CoV Urbani,[1],0.3
same,Binding of serum SARS-green to linear peptides of protein M of SARS-CoV Urbani,[1],0.3
same,Binding of serum SARS-green to looped/cyclic peptides of protein M of SARS-CoV Urbani,[1],0.3
same,Binding of serum SARS-yellow to linear peptides of protein M of SARS-CoV Urbani,[1],0.1
same,Binding of serum SARS-yellow to looped/cyclic peptides of protein M of SARS-CoV Urbani,[1],0.4
same,Binding of Control Serum Blood-Bank to Looped peptides of the protein M of SARS-CoV Urbani,[2],0.6
same,Binding of Control serum Blood-bank to linear peptides of the protein M of SARS-CoV Urbani,[2],0.8
same,Binding of Control serum LUMC to linear peptides of the protein M of SARS-CoV Urbani,[2],0.5
same,Binding of Control serum LUMC to looped peptides of the protein M of SARS-CoV Urbani,[2],0.8
same,Rabbit serum linear peptides,[3],0.5
same,Rabbit serum looped peptides,[3],0.0
